Measurements published in patent publication US20190106460A1, “BINDING INHIBITORS OF THE BETA. TRANSDUCIN REPEAT-CONTAINING PROTEIN” (priority 2011, published 2019).
Entries after “also recorded” stand apart in the source; their conditions may differ. Non-standard residues stand in square brackets, D forms with d. Residues, ends and D or L forms follow the SMILES beside them. *: point of attachment. Benzenesulfonyl(4-OMe) = COc1ccc(S(=O)(=O)*)cc1; Arachidoyl = CCCCCCCCCCCCCCCCCCCC(=O)*; Phe(3-F) = N[C@@H](Cc1cccc(F)c1)C(=O)O; Stearoyl = CCCCCCCCCCCCCCCCCC(=O)*; 2Naphthoyl = O=C(c1ccc2ccccc2c1)*; Brosyl = O=S(=O)(c1ccc(Br)cc1)*; Tos = Cc1ccc(S(=O)(=O)*)cc1; Ahx = NCCCCCC(=O)O

Legend:
Assay type in all cases: cell-based
LNCaP (prostate cancer) = assay: xCELLigence cell viability / proliferation, LNCaP
Protocol: Example 9—Cell Based Activity of Cell Permeable Compounds on the xCELLigence Platform
The effects of the compounds shown in FIGS. 14A-14B were tested on cancer cell lines MCF7 (breast cancer) and LNCaP (prostate cancer) using the xCELLigence platform (http://www.roche-applied-science.com/sis/xcelligence/ezhome.html). This method of measuring cell viability via measuring cell index is known in the art.
Different doses of the compounds were tested on MCF7 cells to see if there would be an effect on their cell viability.
The control compound was compared to its partner active compound (UBP037).
(§1) xCELLigence Method • Before starting the experiment add 50 μL of medium (RPMI 1640, 10% fetal bovine serum, 100 units/mL penicillin, 100 ug/mL streptomycin, and 2 mmol/L glutamine, all from GIBCO) to each well of 96 well E-plate (Roche) and place the plate in the xCELLigence platform to measure the background. • LNCaP/PNT-1 cells are seeded (LNCaPs 80000 cells/well; PNT1 3000 cells/well) in the plate in complete medium and equilibrated for 60 mins at RT before returning to the xCELLigence platform and incubating at 37° C./5% CO2. • 24 hrs after seeding, remove 100 μL of medium was removed from each well and cells were treated with compounds or DMSO diluted in 100 μL of OptiMEM (GIBCO). • Replace the plate in the xCELLigence platform • Cells growth can then be monitored in real-time by the cell index profile on the xCELLigence readout screen • Cell growth can be expressed as normalized cell index and doubling time/slope calculated using the RTCA software.

PDCD4 in MCF7 cells [1] = assay: In-cell western assay for PDCD4 accumulation; settings: for cell based activity: general statement, different delivery vehicles; for accumulation of PDCD4, in cell western: MCF7, treatment with cell permeable compound
Protocol: In-Cell Western Assay for PDCD4 Accumulation.
To measure this an in-cell western assay was used and the peptidomimetics were delivered to the cells by nucleofection.
MCF7 cells were grown in 10 cm dishes in 10 ml DMEM+10% FBS and 1% Pen/Strep at 37° C./5% CO2. On the day of nucleofection, the dish was washed with 90% confluent MCF7 cells with 5 ml PBS, then 3 ml of Trypsin/EDTA was added and incubated at 37° C./5% CO2 for approximately 5 mins until the cells detached from the plastic. 7 ml of normal growth media was added and the number of cells present was counted using a haemocytometer.
The cells were centrifuged cells at 90 g for 10 mins at RT and the supernatant was removed. 100 μl of Nucleofection Buffer V+ Supplement was added (Lonza Biologics Cat no VCA-1003) per 8×10^5 cells, and the cells were added to peptidomimetics dissolved in <3% DMSO.
The cell/peptidomimetic mix was added to cuvettes supplied for the nucleofector and the sample was nucleofected using the recommended MCF7 programme for high cell viability (i.e. E-014). 500 μl of TPA (12-O-tetradecanoylphorbol-13-acetate)-supplemented growth media (i.e. DMEM/10% FBS/1% Pen-Strep/10 nM TPA) was added to the cuvette and 100 μl of this solution was transferred to a well of a 96 well plate and incubated at 37° C./5% CO2 for 8 hours.
The celled were fixed by removing the growth media, adding 3.7% Formaldehyde in PBS and incubating at RT for 20 mins. The plate was washed three times in PBS. And the cells were permeabilised by washing 5× for 5 mins each in PBS+0.1% Triton X-100.
The cells were blocked by adding 3% BSA in PBS-Tween to the cells and incubating at RT for 1.5 hours. An anti-PDCD4 antibody (Abcam cat no: ab80590) was added at a concentration of 1:1000 in 3% BSA in PBS-T (50 ul/well) and incubated at RT for 2.5 hours. The cells were washed 5× for 5 mins each with PBS-T before the secondary antibody (LiCor Biosciences Donkey Anti-Rabbit IRDye 800CW cat no 926-32213) was added at a concentration of 1:1000, along with the DNA stain DRAQ5 at a concentration of 1:10000, in 3% BSA in PBS-T (50 ul/well) and incubated at RT for 1 hour, protected from light.
The cells were washed cells 5× for 5 mins each with PBS-T and all the liquid was removed from the wells before the plate was read on the LiCor Biosciences Odyssey at 700 nm and 800 nm. The reading was normalised in the 800 nm channel to that in the 700 nm channel. The data are shown in FIG. 12, where DMSO was used as a negative control and 20 μM MG132 was used as a positive control. The data is presented as percentage activity with DMSO=0% and […]=100% activity. Error bars represent standard deviation from 3 replicates.
The compounds shown in FIGS. 14A-14B were synthesised to improve cell permeability. […] FIG. 16 compares the round II compounds (shown in FIGS. 14A-14B) with UBP036 in this assay. […] Inhibition of βTrCP, which is responsible for the degradation of both PDCD4 and β-catenin, causes a concomitant stabilisation and accumulation of levels of these proteins which can be measured by in cell western assay.

PDCD4 in MCF7 cells [2] = assay: Traditional western blot for PDCD4, MCF7
Text: […]

PDCD4 in LNCaP cells = assay: Traditional western blot for PDCD4, LNCaP
Text: […]

PNT-1 cell line = assay: xCELLigence cell growth, non-malignant PNT-1
Protocol: as §1
The susceptibility of cancer cell lines versus non-cancer cell lines following treatment with the compounds was also investigated.

`CCCCCCCCCCCCCCCCCC(=O)NCCCC[C@H](NC(=O)CCCCCNC(=O)[C@H](Cc1c[nH]c2ccccc12)NC(=O)CNC(=O)[C@H](CCC(=O)O)NC(=O)[C@H](Cc1ccccc1)NC(=O)[C@@H](CC(=O)O)NC(=O)[C@H](CCC(=O)O)NS(=O)(=O)c1ccc(C)cc1)C(N)=O` [Ts-EdFEGW-Ahx-K(Stearic)-NH2, reference compound] (Tos-E[dD]FEGW[Ahx]K(Stearoyl)-NH2) was tested. Which “cell growth / proliferation, xCELLigence” value (LNCaP (prostate cancer)) did it give?
Its value is “levels of cell proliferation similar to that seen with DMSO”.

Which cell based activity (PDCD4 in MCF7 cells [1]) does the source give for `COc1ccc(S(=O)(=O)N[C@H](CC(=O)O)C(=O)N[C@@H](CCC(=O)O)C(=O)NCC(=O)N[C@@H](Cc2cccc(F)c2)C(=O)N[C@@H](Cc2c[nH]c3ccccc23)C(=O)N[C@@H](CCC(=O)O)C(N)=O)cc1` [UBP022, 4-(MeO)-PhSO2-dEGF(3F)WE-NH2] ({Benzenesulfonyl(4-OMe)}-[dD]EG[Phe(3-F)]WE-NH2) here?
Its cell based activity is “display cell based activity”.

With `CCCCCCCCCCCCCCCCCC(=O)NCCCC[C@H](NC(=O)CCCCCNC(=O)[C@H](CCC(=O)O)NC(=O)[C@H](Cc1c[nH]c2ccccc12)NC(=O)[C@H](Cc1cccc(F)c1)NC(=O)CNC(=O)[C@H](CCC(=O)O)NC(=O)[C@@H](CC(=O)O)NS(=O)(=O)c1ccc(OC)cc1)C(N)=O` [UBP037, 4-(MeO)PhSO2-dEGF(3F)WE-Ahx-K(NHCOC17H35)-NH2] ({Benzenesulfonyl(4-OMe)}-[dD]EG[Phe(3-F)]WE[Ahx]K(Stearoyl)-NH2) as the compound, how does the “accumulation of PDCD4, in cell western” value (PDCD4 in MCF7 cells [1]) read?
Its value is “inconclusive results”.

And the “PDCD4 accumulation, traditional western blot” value (shortened to “PDCD4 accumulation”) (PDCD4 in MCF7 cells [2])?
Its value is “exhibited cellular activity”.

What about the “PDCD4 accumulation” value (PDCD4 in LNCaP cells) of the same compound?
The value was “exhibited cellular activity”.

What about the “cell growth / proliferation, xCELLigence” value (LNCaP (prostate cancer)) of the same compound?
Its value is “inhibit the growth; also recorded: severely restricts the proliferation”.

What about the “cell growth, xCELLigence” value (PNT-1 cell line) of the same compound?
Its value is “far less effect”.

For `CCCCCCCCCCCCCCCCCCCC(=O)NCCCC[C@H](NC(=O)CCCCCNC(=O)[C@H](CCC(=O)O)NC(=O)[C@H](Cc1c[nH]c2ccccc12)NC(=O)[C@H](Cc1cccc(F)c1)NC(=O)CNC(=O)[C@H](CCC(=O)O)NC(=O)[C@@H](CC(=O)O)NS(=O)(=O)c1ccc(OC)cc1)C(N)=O` [UBP038, 4-(MeO)PhSO2-dEGF(3F)WE-Ahx-K(NHCOC19H39)-NH2] ({Benzenesulfonyl(4-OMe)}-[dD]EG[Phe(3-F)]WE[Ahx]K(Arachidoyl)-NH2), which “accumulation of PDCD4, in cell western” value (PDCD4 in MCF7 cells [1]) is on record?
The value was “inconclusive results”.

And the “PDCD4 accumulation” value (PDCD4 in MCF7 cells [2])?
The value was “exhibited cellular activity”.

What about the “PDCD4 accumulation” value (PDCD4 in LNCaP cells) of the same compound?
The value was “exhibited cellular activity”.

What about the “cell growth / proliferation, xCELLigence” value (LNCaP (prostate cancer)) of the same compound?
Its value is “inhibit the growth”.

What about the “cell growth, xCELLigence” value (PNT-1 cell line) of the same compound?
Its value is “far less effect”.

With `NC(=O)[C@H](CCCCNC(=O)c1ccc2ccccc2c1)NC(=O)CCCCCNC(=O)[C@H](CCC(=O)O)NC(=O)[C@H](Cc1c[nH]c2ccccc12)NC(=O)[C@H](Cc1cccc(F)c1)NC(=O)CNC(=O)[C@H](CCC(=O)O)NC(=O)[C@@H](CC(=O)O)NS(=O)(=O)c1ccc(Br)cc1` [UBP090, 4-(Br)PhSO2-dEGF(3F)WE-Ahx-K(NHCO(2-Naphth))-NH2] (Brosyl-[dD]EG[Phe(3-F)]WE[Ahx]K(2Naphthoyl)-NH2) as the compound, how does the cell based activity (PDCD4 in MCF7 cells [1]) read?
The cell based activity was “display cell based activity”.
